In ChEMBL document CHEMBL5523725, “Fragment-Based Anti-inflammatory Agent Design and Target Identification: Discovery of AF-45 as an IRAK4 Inhibitor to Treat Ulcerative Colitis and Acute Lung Injury” (J Med Chem, 2024):
Active and inactive are the calls of the source. The rule behind the calls is not given here.

Legend:
RAW264.7 [1] = assay: Antiinflammatory activity in LPS-induced mouse RAW264.7 cells assessed as inhibition of IL-6 release at 10 uM pretreated for 30 mins followed by LPS stimulation and measured after 24 hrs by ELISA relative to control; type: functional; conditions: time 24.5 hrs
RAW264.7 [2] = assay: Antiinflammatory activity in LPS-induced mouse RAW264.7 cells assessed as inhibition of TNF-alpha mRNA transcription pretreated for 2 hrs followed by LPS stimulation and measured after 6 hrs by RT-qPCR analysis; type: functional, cell-based; conditions: dose 5-10 µM, time 8.0 hrs
RAW264.7 [3] = assay: Inhibition of NFkappaB signaling pathway in LPS-induced mouse RAW264.7 cells assessed as inhibition of p65 entry into nucleus pretreated for 2 hrs followed by LPS stimulation and measured after 15 mins by immunofluorescence staining based analysis; type: cell-based; conditions: time 135.0 min
[4] = target: T1, Interleukin-1 receptor-associated kinase 1 (Homo sapiens, UniProt P51617); assay: Inhibition of IRAK1 (unknown origin) at 10 uM relative to control
Target sequence in this assay (P51617 whole entry, looked up): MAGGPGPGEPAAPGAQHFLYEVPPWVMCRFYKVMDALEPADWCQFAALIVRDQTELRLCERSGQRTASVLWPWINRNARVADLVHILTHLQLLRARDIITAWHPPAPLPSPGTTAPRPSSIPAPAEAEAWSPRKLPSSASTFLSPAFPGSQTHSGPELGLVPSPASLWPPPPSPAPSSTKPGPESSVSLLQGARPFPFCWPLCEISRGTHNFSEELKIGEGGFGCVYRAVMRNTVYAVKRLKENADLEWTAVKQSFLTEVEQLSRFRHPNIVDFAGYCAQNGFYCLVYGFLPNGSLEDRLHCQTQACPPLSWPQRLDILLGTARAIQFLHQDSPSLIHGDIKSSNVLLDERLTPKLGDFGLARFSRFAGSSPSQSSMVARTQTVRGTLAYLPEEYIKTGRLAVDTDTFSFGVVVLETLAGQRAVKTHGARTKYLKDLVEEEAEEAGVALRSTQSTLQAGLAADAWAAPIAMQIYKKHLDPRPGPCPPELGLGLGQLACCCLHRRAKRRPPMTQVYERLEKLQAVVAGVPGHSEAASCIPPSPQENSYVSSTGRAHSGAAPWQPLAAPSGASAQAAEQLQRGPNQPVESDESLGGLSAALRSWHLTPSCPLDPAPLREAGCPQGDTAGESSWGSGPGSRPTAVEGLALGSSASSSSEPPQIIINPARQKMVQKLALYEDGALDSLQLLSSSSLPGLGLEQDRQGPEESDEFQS

[5] = target: T1, Interleukin-1 receptor-associated kinase 1; assay: Inhibition of IRAK1 (unknown origin)
Target sequence in this assay (P51617 whole entry): as the sequence (P51617 whole entry, looked up) above

[6] = target: Aurora kinase B (Homo sapiens) (UniProt Q96GD4); assay: Inhibition of human AurB assessed as residual activity at 10 uM by Eurofins kinase profiler method relative to control
Sequence of Aurora kinase B (Homo sapiens) (Q96GD4 whole entry): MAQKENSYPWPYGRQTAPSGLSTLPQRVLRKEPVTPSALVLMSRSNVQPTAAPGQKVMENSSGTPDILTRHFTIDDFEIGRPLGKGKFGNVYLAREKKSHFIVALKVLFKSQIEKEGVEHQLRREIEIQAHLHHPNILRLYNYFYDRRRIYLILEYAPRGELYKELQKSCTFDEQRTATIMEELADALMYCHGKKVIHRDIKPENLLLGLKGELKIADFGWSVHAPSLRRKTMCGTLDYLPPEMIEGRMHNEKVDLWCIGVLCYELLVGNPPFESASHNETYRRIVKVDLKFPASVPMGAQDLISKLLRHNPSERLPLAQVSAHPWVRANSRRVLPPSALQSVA

[7] = target: T2, Lymphocyte antigen 96 (Mus musculus) (UniProt Q9JHF9); assay: Thermal stabilization of MD2 in mouse RAW264.7 cells assessed as reduction in decomposition at 10 uM at 45 to 51 degreeC measured after 4 hrs by CETSA; type: cell-based
T2 sequence (whole entry): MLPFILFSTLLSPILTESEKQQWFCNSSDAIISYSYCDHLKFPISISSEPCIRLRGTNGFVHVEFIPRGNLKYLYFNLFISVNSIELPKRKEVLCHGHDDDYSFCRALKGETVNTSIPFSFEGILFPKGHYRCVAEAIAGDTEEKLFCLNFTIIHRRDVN

RAW264.7 [8] = assay: Inhibition of NFkappaB/MAPK signaling pathway in mouse RAW264.7 cells assessed as reduction in LPS-induced p65 phosphorylation at 50 uM by Western blot analysis; type: cell-based
RAW264.7 [9] = assay: Inhibition of NFkappaB/MAPK signaling pathway in mouse RAW264.7 cells assessed as reduction in LPS-induced JNK phosphorylation at 50 uM by Western blot analysis; type: cell-based
Mus musculus [10] = assay: Antiinflammatory activity in male C57BL/6 mouse model of DSS-induced ulcerative colitis assessed as increase in body weight at 20 mg/kg, po administered for 11 days with subsequent administration of DSS for 8 days and measured on day 11; type: functional, organism-based; conditions: time 11.0 day
Mus musculus [11] = assay: Anti-colitis activity in male C57BL/6 mouse model of DSS-induced ulcerative colitis assessed as colon length at 20 mg/kg, po administered for 11 days with subsequent administration of DSS for 8 days (reference value: 5.2 cm); type: functional; conditions: time 11 day
Mus musculus [12] = assay: Antiinflammatory activity in male C57BL/6 mouse model of DSS-induced ulcerative colitis assessed as reduction in spleen to body weight ratio at 10 to 20 mg/kg, po administered for 11 days with subsequent administration of DSS for 8 days; type: functional, organism-based; conditions: dose 10-20 mg/kg, time 11.0 day
Mus musculus [13] = assay: Antiinflammatory activity in male C57BL/6 mouse model of DSS-induced ulcerative colitis assessed as preservation of goblet cells at 10 to 20 mg/kg, po administered for 11 days with subsequent administration of DSS for 8 days by H and E staining based analysis; type: functional, organism-based; conditions: dose 10-20 mg/kg, time 11.0 day
Mus musculus [14] = assay: Antiinflammatory activity in male C57BL/6 mouse model of DSS-induced ulcerative colitis assessed as reversal of ruptured spleen at 10 to 20 mg/kg, po administered for 11 days with subsequent administration of DSS for 8 days by H and E staining based analysis; type: functional, organism-based; conditions: dose 10-20 mg/kg, time 11.0 day
Mus musculus [15] = assay: Antiinflammatory activity in male C57BL/6 mouse model of DSS-induced ulcerative colitis assessed as reversal of invisible pulp structure at 10 to 20 mg/kg, po administered for 11 days with subsequent administration of DSS for 8 days by H and E staining based analysis; type: functional, organism-based; conditions: dose 10-20 mg/kg, time 11.0 day
Mus musculus [16] = assay: Antiinflammatory activity in male C57BL/6 mouse model of DSS-induced ulcerative colitis assessed as reduction in macrophage infiltration in spleen at 10 to 20 mg/kg, po administered for 11 days with subsequent administration of DSS for 8 days by F4/80 labeling based immunohistochemistry analysis; type: functional, organism-based; conditions: dose 10-20 mg/kg, time 11.0 day
Mus musculus [17] = assay: Antiinflammatory activity in LPS induced C57BL/6 mouse model of acute lung injury assessed as inhibition of TNFalpha release in serum at 20 to 40 mg/kg, ip preadministered for 30 mins followed by LPS administration and measured after 6 hrs by ELISA; type: functional, organism-based; conditions: dose 20-40 mg/kg, time 6.5 hrs
Mus musculus [18] = assay: Antiinflammatory activity in LPS induced C57BL/6 mouse model of acute lung injury assessed as inhibition of TNFalpha release in BALF at 20 to 40 mg/kg, ip preadministered for 30 mins followed by LPS administration and measured after 6 hrs by ELISA; type: functional, organism-based; conditions: dose 20-40 mg/kg, time 6.5 hrs
Mus musculus [19] = assay: Antiinflammatory activity in LPS induced C57BL/6 mouse model of acute lung injury assessed as reduction in spleen over activation at 20 to 40 mg/kg, ip preadministered for 30 mins followed by LPS administration and measured after 6 hrs by H and E staining based analysis; type: functional, organism-based; conditions: dose 20-40 mg/kg, time 6.5 hrs
Mus musculus [20] = assay: Antiinflammatory activity in LPS induced C57BL/6 mouse model of acute lung injury assessed as reduction in white pulp fusion at 20 to 40 mg/kg, ip preadministered for 30 mins followed by LPS administration and measured after 6 hrs by H and E staining based analysis; type: functional, organism-based; conditions: dose 20-40 mg/kg, time 6.5 hrs
Mus musculus [21] = assay: Antiinflammatory activity in LPS induced C57BL/6 mouse model of acute lung injury assessed as reduction in over activation of spleen at 20 to 40 mg/kg, ip preadministered for 30 mins followed by LPS administration and measured after 6 hrs by F4/80 labeling based immunohistochemical analysis; type: functional, organism-based; conditions: dose 20-40 mg/kg, time 6.5 hrs
[22] = Stability of compound in simulated gastric fluid at 10 mg/ml incubated for 8 hrs and measured every 2 hrs hy HPLC analysis; type: ADME; conditions: simulated gi fluid
[23] = Stability of compound in enzyme-free simulated gastric fluid at 10 mg/ml incubated for 8 hrs and measured every 2 hrs hy HPLC analysis; type: ADME; conditions: simulated gi fluid
[24] = Stability of compound in enzyme free simulated intestinal fluid at 10 mg/ml incubated for 8 hrs and measured every 2 hrs hy HPLC analysis; type: ADME; conditions: simulated gi fluid
[25] = Half life in male Sprague-Dawley rat at 1 mg/kg, iv administered via tail vein and measured upto 24 hrs; type: ADME, organism-based; conditions: in vivo
[26] = Clearance in male Sprague-Dawley rat at 1 mg/kg, iv administered via tail vein and measured upto 24 hrs; type: ADME, organism-based; conditions: in vivo
[27] = Half life in male Sprague-Dawley rat at 10 mg/kg, po measured upto 24 hrs; type: ADME, organism-based; conditions: in vivo
[28] = AUC (0 to t) in male Sprague-Dawley rat at 10 mg/kg, po measured upto 24 hrs; type: ADME, organism-based; conditions: in vivo
[29] = Clearance in male Sprague-Dawley rat at 10 mg/kg, po measured upto 24 hrs; type: ADME, organism-based; conditions: in vivo
RAW264.7 [30] = assay: cells; conditions: Mus musculus
Description: Antiinflammatory activity in LPS-induced mouse RAW264.7 cells assessed as inhibition of IL-6 release pretreated for 30 mins followed by LPS stimulation and measured after 24 hrs by ELISA

RAW264.7 [31] = assay: cells; conditions: Mus musculus; remark: listed apart in the source
Description: Antiinflammatory activity in LPS-induced mouse RAW264.7 cells assessed as inhibition of TNF-alpha release pretreated for 30 mins followed by LPS stimulation and measured after 24 hrs by ELISA

THP-1 = assay: cells; conditions: Homo sapiens
Description: Antiinflammatory activity in LPS-induced human THP-1 cells assessed as inhibition of IL-6 release pretreated for 30 mins followed by LPS stimulation and measured after 24 hrs by ELISA

inhibition [4]: 87%
IC50 [5]: 1770 nM
Activity [6]: 70%
Activity [7]: inactive
Stability [22]: Stable
Stability [23]: Stable
Stability [24]: Stable
half-life [25]: 168 min
clearance [26]: 3.83 mL/min/kg
half-life [27]: 336 min
AUCt [28]: 10653.6 ng·h/mL
CL [29]: 0.089 L/h/kg
IC50 (RAW264.7 [30]): 1270 nM
IC50 (RAW264.7 [31]): 2600 nM
IC50 (THP-1): 530 nM
SMILES: COc1cc2c(O[C@H]3CC[C@@H](N)CC3)ncnc2cc1OCc1ccccc1
inhibition at 10 µM (RAW264.7 [1]): 92.4%
Activity (RAW264.7 [2]): Dose-Dependent Effect
inhibition (RAW264.7 [3]): Active
inhibition (RAW264.7 [8]): Active
inhibition (RAW264.7 [9]): Active
Activity (Mus musculus [10]): Active
Activity (Mus musculus [11]): 6.2 cm
Activity (Mus musculus [12]): Active
Activity (Mus musculus [13]): Active
Activity (Mus musculus [14]): Active
Activity (Mus musculus [15]): Active
Activity (Mus musculus [16]): Active
Activity (Mus musculus [17]): Active
Activity (Mus musculus [18]): Active
Activity (Mus musculus [19]): Active
Activity (Mus musculus [20]): Active
Activity (Mus musculus [21]): Active
